Source: ChEMBL document CHEMBL5034026, “Design, synthesis and evaluation of 2'-acetylene-7-deaza-adenosine phosphoamidate derivatives as anti-EV71 and anti-EV-D68 agents” (Eur J Med Chem, 2021)

Assays:
[1] = Tmax in CD-1 mouse at 25 mg/kg, po by LC-MS/MS; type: ADME, organism-based; conditions: in vivo
[2] = Selectivity index, ratio of CC50 for human RD cells to IC50 for Enterovirus A71 infected in human RD cells; type: toxicity, cell-based; conditions: read-out: Selectivity Index
[3] = AUC ( 0 to last) in CD-1 mouse at 25 mg/kg, po by LC-MS/MS; type: ADME, organism-based; design: time 0 - last, route oral, dose 25 mg/kg; conditions: in vivo
[4] = AUC ( 0 to infinity ) in CD-1 mouse at 25 mg/kg, po by LC-MS/MS; type: ADME, organism-based; design: time infinity, route oral, dose 25 mg/kg; conditions: in vivo
[5] = Half life in CD-1 mouse at 25 mg/kg, po by LC-MS/MS; type: ADME, organism-based; conditions: in vivo
[6] = Cmax in CD-1 mouse at 25 mg/kg, po by LC-MS/MS; type: ADME, organism-based; design: route oral, dose 25 mg/kg; conditions: in vivo
enterovirus D68 = assay: Antiviral activity against Enterovirus D68 infected in human RD cells assessed as inhibition of viral replication measured after 4 days by Cell Titer-Glo luminescent cell viability assay; type: functional, organism-based; conditions: Enterovirus D, 96 h
RD = assay: (§1) Cytotoxicity against human RD cells assessed as reduction in cell viability by Cell Titer-Glo luminescent cell viability assay; type: cell-based; conditions: rd
[7] = Half life in CD-1 mouse at 5 mg/kg, iv by LC-MS/MS; type: ADME, organism-based; conditions: in vivo
[8] = Selectivity index, ratio of CC50 for human RD cells to IC50 for Enterovirus D68 infected in human RD cells; type: toxicity, cell-based; conditions: read-out: Selectivity Index
[9] = AUC ( 0 to last) in CD-1 mouse at 5 mg/kg, iv by LC-MS/MS; type: ADME, organism-based; design: time 0 - last, route intravenous, dose 5 mg/kg; conditions: in vivo
[10] = Cmax in CD-1 mouse at 5 mg/kg, iv by LC-MS/MS; type: ADME, organism-based; design: route intravenous, dose 5 mg/kg; conditions: in vivo
[11] = Tmax in CD-1 mouse at 5 mg/kg, iv by LC-MS/MS; type: ADME, organism-based; conditions: in vivo
[12] = AUC ( 0 to infinity ) in CD-1 mouse at 5 mg/kg, iv by LC-MS/MS; type: ADME, organism-based; design: route intravenous, time infinity, dose 5 mg/kg; conditions: in vivo
Enterovirus A71 = assay: Antiviral activity against Enterovirus A71 infected in human RD cells assessed as inhibition of viral replication measured after 4 days by Cell Titer-Glo luminescent cell viability assay; type: functional, organism-based; conditions: Enterovirus A, 96 h
[13] = as §1; type: cell-based; conditions: RD cells
[14] = Cmax in CD-1 mouse assessed as parent NITD008 level at 25 mg/kg, po by LC-MS/MS analysis; type: ADME, organism-based; design: route oral, dose 25 mg/kg; conditions: in vivo
[15] = Cmax in CD-1 mouse assessed as parent NITD008 level at 5 mg/kg, iv by LC-MS/MS analysis; type: ADME, organism-based; design: route intravenous, dose 5 mg/kg; conditions: in vivo
[16] = Half life in CD-1 mouse assessed as parent NITD008 level at 5 mg/kg, iv by LC-MS/MS analysis; type: ADME, organism-based; conditions: in vivo
[17] = AUCinf in CD-1 mouse assessed as parent NITD008 level at 5 mg/kg, iv by LC-MS/MS analysis; type: ADME, organism-based; design: route intravenous, time infinity, dose 5 mg/kg; conditions: in vivo
[18] = AUClast in CD-1 mouse assessed as parent NITD008 level at 25 mg/kg, po by LC-MS/MS analysis; type: ADME, organism-based; design: route oral, time 0 - last, dose 25 mg/kg; conditions: in vivo
[19] = AUClast in CD-1 mouse assessed as parent NITD008 level at 5 mg/kg, iv by LC-MS/MS analysis; type: ADME, organism-based; design: route intravenous, time 0 - last, dose 5 mg/kg; conditions: in vivo
[20] = Half life in CD-1 mouse assessed as parent NITD008 level at 25 mg/kg, po by LC-MS/MS analysis; type: ADME, organism-based; conditions: in vivo
[21] = AUCinf in CD-1 mouse assessed as parent NITD008 level at 25 mg/kg, po by LC-MS/MS analysis; type: ADME, organism-based; design: route oral, time infinity, dose 25 mg/kg; conditions: in vivo
[22] = Tmax in CD-1 mouse assessed as parent NITD008 level at 5 mg/kg, iv by LC-MS/MS analysis; type: ADME, organism-based; conditions: in vivo
[23] = Tmax in CD-1 mouse assessed as parent NITD008 level at 25 mg/kg, po by LC-MS/MS analysis; type: ADME, organism-based; conditions: in vivo

SMILES	selectivity ratio [2]	IC50 (enterovirus D68)	CC50 (RD)	selectivity ratio [8]	IC50 (Enterovirus A71)	CC50 [13]	other results
C#C[C@@]1(O)[C@H](O)[C@@H](CO)O[C@H]1n1ccc2c(N)ncnc21	> 36.2	230 nM	> 20 µM	> 87.1	550 nM		Tmax [1]: 49.8 min; AUC(0-t) [3]: 2700 ng·h/mL; AUC(0-inf) [4]: 2790 ng·h/mL; half-life [5]: 305 min; Cmax [6]: 579 ng/mL; half-life [7]: 546 min; AUC(0-t) [9]: 1970 ng·h/mL; Cmax [10]: 6760 ng/mL; Tmax [11]: 1.98 min; AUC(0-inf) [12]: 2080 ng·h/mL
C#C[C@@]1(O)[C@H](O)[C@@H](COP(=O)(N[C@@H](CCSC)C(=O)OC(C)C)Oc2ccccc2)O[C@H]1n1ccc2c(N)ncnc21 (stereo not given in full)	11.3	3060 nM		2.92	790 nM	8.95 µM	
C#C[C@@]1(O)[C@H](O)[C@@H](COP(=O)(N[C@@H](CC(C)C)C(=O)OC(C)C)Oc2ccccc2)O[C@H]1n1ccc2c(N)ncnc21 (stereo not given in full)	33.8	410 nM		51.2	620 nM	21 µM	
C#C[C@@]1(O)[C@H](O)[C@@H](COP(=O)(N[C@@H](C)C(=O)OC(C)C)Oc2ccccc2)O[C@H]1n1ccc2c(N)ncnc21 (stereo not given in full)	17.1	1780 nM		8.73	910 nM	15.5 µM	
C#C[C@@]1(O)[C@H](O)[C@@H](COP(=O)(N[C@@H](Cc2c[nH]c3ccccc23)C(=O)OC(C)C)Oc2ccccc2)O[C@H]1n1ccc2c(N)ncnc21 (stereo not given in full)	11.4	1030 nM		13.4	1210 nM	13.8 µM	
C#C[C@@]1(O)[C@H](O)[C@@H](COP(=O)(N[C@H](CCSC)C(=O)OC(C)C)Oc2ccccc2)O[C@H]1n1ccc2c(N)ncnc21 (stereo not given in full)		49200 nM		0.4			
C#C[C@@]1(O)[C@H](O)[C@@H](COP(=O)(N[C@@H](C)C(=O)OCCCCCC)Oc2ccccc2)O[C@H]1n1ccc2c(N)ncnc21 (stereo not given in full)	262	360 nM		94.5	130 nM	34 µM	Cmax [14]: 103 ng/mL; Cmax [15]: 1403 ng/mL; t1/2 [16]: 4.05 h; AUC [17]: 373 ng·h/mL; AUClast [18]: 334 ng·h/mL; AUClast [19]: 359 ng·h/mL; t1/2 [20]: 5.39 h; AUC [21]: 368 ng·h/mL; Tmax [22]: 1.98 min; Tmax [23]: 8.4 min
C#C[C@@]1(O)[C@H](O)[C@@H](COP(=O)(N[C@@H](C)C(=O)OCCCCC)Oc2ccccc2)O[C@H]1n1ccc2c(N)ncnc21 (stereo not given in full)		530 nM		99.9	300 nM	52.9 µM	
C#C[C@@]1(O)[C@H](O)[C@@H](COP(=O)(N[C@@H](C)C(=O)OC2CCCC2)Oc2ccccc2)O[C@H]1n1ccc2c(N)ncnc21 (stereo not given in full)		250 nM			580 nM		
C#C[C@@]1(O)[C@H](O)[C@@H](COP(=O)(N[C@H](C(=O)OC)C(C)C)Oc2ccccc2)O[C@H]1n1ccc2c(N)ncnc21 (stereo not given in full)	> 72	2650 nM	> 100 µM	> 6.61	1390 nM		
C#C[C@@]1(O)[C@H](O)[C@@H](COP(=O)(N[C@H](C)C(=O)OC(C)C)Oc2ccccc2)O[C@H]1n1ccc2c(N)ncnc21 (stereo not given in full)	> 15.8	13400 nM	> 100 µM	> 8.75	6310 nM		
C#C[C@@]1(O)[C@H](O)[C@@H](COP(=O)(N[C@@H](C)C(=O)OCC(C)(C)C)Oc2ccccc2)O[C@H]1n1ccc2c(N)ncnc21 (stereo not given in full)	77.5	530 nM		57.1	390 nM	30.2 µM	Cmax [14]: 165 ng/mL; Cmax [15]: 1983 ng/mL; t1/2 [16]: 3.3 h; AUC [17]: 833 ng·h/mL; AUClast [18]: 722 ng·h/mL; AUClast [19]: 800 ng·h/mL; t1/2 [20]: 4.97 h; AUC [21]: 744 ng·h/mL; Tmax [22]: 1.98 min; Tmax [23]: 49.8 min
C#C[C@@]1(O)[C@H](O)[C@@H](COP(=O)(N[C@@H](C)C(=O)OCC)Oc2ccccc2)O[C@H]1n1ccc2c(N)ncnc21 (stereo not given in full)	40.2	1230 nM		27.1	830 nM	33.4 µM	
C#C[C@@]1(O)[C@H](O)[C@@H](COP(=O)(N[C@H](CC(C)C)C(=O)OC(C)C)Oc2ccccc2)O[C@H]1n1ccc2c(N)ncnc21 (stereo not given in full)	125	18600 nM		3.7	550 nM	68.7 µM	
C#C[C@@]1(O)[C@H](O)[C@@H](COP(=O)(NCC(=O)OC(C)C)Oc2ccccc2)O[C@H]1n1ccc2c(N)ncnc21 (stereo not given in full)	> 15.1	7930 nM	> 100 µM	> 14.1	6610 nM		
C#C[C@@]1(O)[C@H](O)[C@@H](COP(=O)(N[C@@H](C)C(=O)OCCC)Oc2ccccc2)O[C@H]1n1ccc2c(N)ncnc21 (stereo not given in full)	< 0.47	450 nM		105	> 100000 nM	47.4 µM	
C#C[C@@]1(O)[C@H](O)[C@@H](COP(=O)(N[C@@H](C)C(=O)OC2CCCCC2)Oc2ccccc2)O[C@H]1n1ccc2c(N)ncnc21 (stereo not given in full)	117	170 nM		131	190 nM	22.2 µM	Cmax [14]: 70 ng/mL; Cmax [15]: 1421 ng/mL; t1/2 [16]: 9.8 h; AUC [17]: 558 ng·h/mL; AUClast [18]: 257 ng·h/mL; AUClast [19]: 522 ng·h/mL; t1/2 [20]: 5.68 h; AUC [21]: 281 ng·h/mL; Tmax [22]: 1.98 min; Tmax [23]: 30 min
C#C[C@@]1(O)[C@H](O)[C@@H](COP(=O)(N[C@@H](C(=O)OC)C(C)C)Oc2ccccc2)O[C@H]1n1ccc2c(N)ncnc21 (stereo not given in full)	> 7.86	21600 nM	> 100 µM	> 8.55	12700 nM		
C#C[C@@]1(O)[C@H](O)[C@@H](COP(=O)(N[C@@H](C)C(=O)OCCCC)Oc2ccccc2)O[C@H]1n1ccc2c(N)ncnc21 (stereo not given in full)	> 345	360 nM	> 200 µM	> 556	580 nM		
C#C[C@@]1(O)[C@H](O)[C@@H](COP(=O)(N[C@@H](C)C(=O)OC(CC)CC)Oc2ccccc2)O[C@H]1n1ccc2c(N)ncnc21 (stereo not given in full)	> 139	1170 nM	> 200 µM	> 171	1440 nM		
C#C[C@@]1(O)[C@H](O)[C@@H](COP(=O)(N[C@H](Cc2ccccc2)C(=O)OC(C)C)Oc2ccccc2)O[C@H]1n1ccc2c(N)ncnc21 (stereo not given in full)	1.66	6080 nM		2.22	8160 nM	13.5 µM	
C#C[C@@]1(O)[C@H](O)[C@@H](COP(=O)(N[C@@H](Cc2ccccc2)C(=O)OC(C)C)Oc2ccccc2)O[C@H]1n1ccc2c(N)ncnc21 (stereo not given in full)	385	12600 nM		5.52	180 nM	69.2 µM	
C#C[C@@]1(O)[C@H](O)[C@@H](COP(=O)(N[C@@H](C)C(=O)OCC(C)C)Oc2ccccc2)O[C@H]1n1ccc2c(N)ncnc21 (stereo not given in full)		240 nM		169			
C#C[C@@]1(O)[C@H](O)[C@@H](COP(=O)(N[C@@H](C)C(=O)OC)Oc2ccccc2)O[C@H]1n1ccc2c(N)ncnc21 (stereo not given in full)	> 86.2	1670 nM	> 100 µM	> 59.9	1160 nM		
C#C[C@@]1(O)[C@H](O)[C@@H](COP(=O)(N[C@H](Cc2c[nH]c3ccccc23)C(=O)OC(C)C)Oc2ccccc2)O[C@H]1n1ccc2c(N)ncnc21 (stereo not given in full)	25.9	7810 nM		5.38	1620 nM	42 µM	
